Experimental findings from patent publication US11602534B2, “Pyrimidine derivative kinase inhibitors” (HEFEI INSTITUTES OF PHYSICAL SCIENCE, CHINESE ACADEMY OF …, priority 2017, dated 2023) are described below.

Where only a bound is given, the exact number is not on record here.

In assay [1] the test system is poly(ADP-ribose) polymerase (PARP). As to the kind of experiment: Cell apoptosis: PARP cleavage by Western Blot in AML cells. The settings on record: 1 μM, 24 hours; MOLM-13, MOLM-14, MV-4-11. Format: cell-based, human. The source says:
In human acute myeloid leukemia cells MV4-11 (expressing FLT3/ITD mutant gene) cell strain and human acute myeloid leukemia cells MOLM-13 and MOLM-14 (expressing FLT3/ITD mutant gene and wild-type FLT3 gene) cell strains, the effects of Compound 5 and Compound 135 on protein cleavage of the DNA repairase poly(ADP-ribose) polymerase (PARP) and Caspase (cysteinyl aspartate-specific proteinase) 3 that were closely related to cell apoptosis were examined in cells in order to confirm whether the death of the cells after the administration was caused by apoptosis or necrosis. MOLM-13, MOLM-14, MV-4-11 cell strains were treated with Compound 5, Compound 135 (at different concentrations: 0 μM, 0.1 μM, 0.3 μM, 1 μM, 3 μM in DMSO) and the control compound PKC412 (purchased from MedChem Express) (1 μM in DMSO), respectively, and the cells were collected after 24 hours. Western Blot was used to detect the effects of different concentrations of compounds on protein cleavage of the DNA repairase poly(ADP-ribose) polymerase (PARP) and Caspase (cysteinyl aspartate-specific proteinase) 3.

In assay [2] the test system is P210-BaF3. The assay is described as follows: Proliferation of P210-BaF3 cells, CCK8 cell viability assay. It counts as cell-based. The following applies: Mus musculus, 72 hours, stably expressing BCR-ABL mutant activated kinase. The gist of the method:
(§1)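 Human kinase-region sequences were PCR-amplified, fused behind N-terminal TEL in MSCV-Puro and stably introduced into mouse BaF3 by retrovirus. IL-3 was then removed to give kinase-dependent lines. Compound effects on these and on parental BaF3 are scored as GI50 (μM) via CCK8 viable-cell quantification.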
(Tetrazolium assays rely on reduction of a dye to a coloured formazan, in cell work by metabolically active cells.)

The subject of assay [3] is P210/T315I-BaF3. The assay is described as follows: Proliferation of P210/T315I-BaF3 cells, CCK8 cell viability assay. Format: cell-based. The settings on record: Mus musculus, 72 hours, stably expressing BCR-ABL/T315I. The gist of the method: as §1

For the molecule `CC(=O)Nc1cc(Oc2ccc(NC(=O)Cc3ccc(F)cc3F)cc2)ncn1` [Example 5, N-[4-(6-acetylamino-pyrimidin-4-yloxy)-phenyl]-2-(2,4-difluoro-phenyl)-acetamide], the “cleavage of the DNA repairase poly(ADP-ribose) polymerase (PARP)” value in assay [1] is listed as “significant cleavage”. Moreover, the GI50 (as a rule, the concentration at which growth is held to half of that of the control) in assay [2] was above 10 µM.

Turning to `CC(=O)Nc1cc(Oc2ccc(NC(=O)Cc3ccccc3C(F)(F)F)cc2)ncn1` [Example 135, N-[4-(6-acetylamino-pyrimidin-4-yloxy)-phenyl]-2-(2-trifluoromethyl-phenyl)-acetamide], the GI50 in assay [3] and in assay [2] was above 10 µM in each case. In addition, in assay [1], the “cleavage of the DNA repairase poly(ADP-ribose) polymerase (PARP)” value was “significant cleavage”.
